Measured values: patent US8183239B2, “Substituted piperazines and piperidines as modulators of the neuropeptide Y2 receptor” (Janssen Pharmaceutica NV, priority 2005, dated 2012)

Target: T1, Y2 receptors (Homo sapiens, UniProt P49146)
T1 construct: endogenous in cells; host or cells: KAN-Ts cells (membranes)
T1 sequence (P49146 1-381): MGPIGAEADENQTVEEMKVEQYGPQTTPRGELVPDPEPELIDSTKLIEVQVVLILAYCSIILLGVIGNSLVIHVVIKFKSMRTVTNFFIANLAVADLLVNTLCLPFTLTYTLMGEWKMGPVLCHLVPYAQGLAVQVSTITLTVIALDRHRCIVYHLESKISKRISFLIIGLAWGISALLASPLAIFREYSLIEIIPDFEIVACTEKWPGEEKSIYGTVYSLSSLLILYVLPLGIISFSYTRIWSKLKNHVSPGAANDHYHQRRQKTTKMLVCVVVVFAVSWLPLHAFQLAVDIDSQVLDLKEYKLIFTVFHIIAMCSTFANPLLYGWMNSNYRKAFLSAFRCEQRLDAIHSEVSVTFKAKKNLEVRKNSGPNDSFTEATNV
Test: Radioligand binding assay ([125I]PYY, KAN-Ts cell membranes)
Conditions: Table 1, [125I]PYY 80 pM, average of results, read-out: IC50
Procedure: Radioligand Binding Assay
KAN-Ts endogenously expressing Y2 receptors were used for the radioligand binding assay. Cells were grown to confluence on 150 cm^2 tissue culture plates, washed with phosphate-buffered saline (PBS), and scraped into 50 mL tubes. After centrifugation, the supernatant was aspirated, and the pellets frozen and stored at −80° C. Thawed pellets were homogenized with a polytron tissue grinder for 15 sec in 20 mM Tris-HCl, 5 mM EDTA. The homogenate was centrifuged at 800×g for 5 min and the collected supernatant was recentrifuged at 25000×g for 25 min. The resulting pellet was resuspended in binding buffer (20 mM HEPES, 120 mM NaCl, 0.22 mM KH2PO4, 1.3 mM CaCl2, 0.8 mM MgSO4). Membranes were incubated with [^125I]PYY (80 pM) in the presence or absence of test compound for 1 h at rt. The reaction was stopped by filtration through GF/C filter plates pre-soaked in 0.3% polyethylenimine and subsequently washed with Tris 50 mM, 5 mM EDTA buffer. Plates were dried for 1 h in a 55° C. oven, scintillation fluid was added and the radioactivity was counted in a Packard TopCount. Specific binding to the NPY receptor subtypes was determined by radioactivity that was bound in the presence of […]. Each binding experiment was repeated three to eight times, each in duplicate. IC50 values (i.e. concentration of unlabelled peptide or antagonist required to compete for 50% of specific binding to the radioligand) were calculated using the GraphPad Prism software (GraphPad Software Inc., San Diego Calif.) with a fit to a sigmoidal dose response curve. Data for compounds tested are presented in Tables 1 and 2 as an average of results obtained.

Structure (SMILES)	IC50
CCC(CC)C(=O)Nc1ccc(N2CCN(C(C(=O)N3CCCC3)c3ccccc3)CC2)c(F)c1 (stereo not shown) [Example 1, 2-Ethyl-N-{3-fluoro-4-[4-(2-oxo-1-phenyl-2-pyrrolidin-1-yl-ethyl)-piperazin-1-yl]-phenyl}-butyramide]	0.058 µM
CCC(CC)C(=O)Nc1ccc(N2CCN(Cc3ccccc3C(=O)OC)CC2)c(F)c1 [Example 2, 2-{4-[4-(2-Ethyl-butyrylamino)-2-fluoro-phenyl]-piperazin-1-ylmethyl}-benzoic acid methyl ester]	2.35 µM
CCC(CC)C(=O)Nc1ccc(N2CCN(Cc3cccc(C(=O)N4CCOCC4)c3)CC2)c(F)c1 [Example 3, 2-Ethyl-N-(3-fluoro-4-{4-[3-(morpholine-4-carbonyl)-benzyl]-piperazin-1-yl}-phenyl)-butyramide]	0.56 µM
CCC(CC)C(=O)Nc1ccc(N2CCN(Cc3ccccc3C(=O)N(CC)CC)CC2)c(F)c1 [Example 4, N,N-Diethyl-2-{4-[4-(2-ethyl-butyrylamino)-2-fluoro-phenyl]-piperazin-1-ylmethyl}-benzamide]	0.37 µM
CCC(CC)C(=O)Nc1ccc(N2CCN(Cc3ccccc3C(=O)N3CCOCC3)CC2)c(F)c1 [Example 5, 2-Ethyl-N-(3-fluoro-4-{4-[2-(morpholine-4-carbonyl)-benzyl]-piperazin-1-yl}-phenyl)-butyramide]	1.9 µM
CCC(CC)C(=O)Nc1ccc(N2CCN(C(C(=O)N(CC)CC)c3ccccc3)CC2)c(F)c1 (stereo not shown) [Example 6, N-{4-[4-(Diethylcarbamoyl-phenyl-methyl)-piperazin-1-yl]-3-fluoro-phenyl}-2-ethyl-butyramide]	0.071 µM
CCNC(=O)C(c1ccccc1)N1CCN(c2ccc(NC(=O)C(CC)CC)cc2F)CC1 (stereo not shown) [Example 7, 2-Ethyl-N-{4-[4-(ethylcarbamoyl-phenyl-methyl)-piperazin-1-yl]-3-fluoro-phenyl}-butyramide]	0.377 µM
CCN(CC)C(=O)C(c1ccccc1)C1CCN(c2ccc(NC(=O)Nc3c(C)noc3C)cc2F)CC1 (stereo not shown) [Example 8, 2-(1-{4-[3-(3,5-Dimethyl-isoxazol-4-yl)-ureido]-2-fluoro-phenyl}-piperidin-4-yl)-N,N-diethyl-2-phenyl-acetamide]	0.01 µM
CCN(CC)C(=O)C(c1ccccc1)C1CCN(c2ccc(NC(=O)Cc3c(C)noc3C)cc2F)CC1 (stereo not shown) [Example 9, 2-(1-{4-[2-(3,5-Dimethyl-isoxazol-4-yl)-acetylamino]-2-fluoro-phenyl}-piperidin-4-yl)-N,N-diethyl-2-phenyl-acetamide]	0.014 µM
CCC(CC)C(=O)Nc1ccc(N2CCC(C(C(=O)N(CC)CC)c3ccccc3)CC2)c(F)c1 (stereo not shown) [Example 11, N-{4-[4-(Diethylcarbamoyl-phenyl-methyl)-piperidin-1-yl]-3-fluoro-phenyl}-2-ethyl-butyramide]	0.012 µM
CCN(CC)C(=O)C(c1ccccc1)C1CCN(c2ccc(NC(=O)c3c(C)noc3C)cc2F)CC1 (stereo not shown) [Example 12, 3,5-Dimethyl-isoxazole-4-carboxylic acid {4-[4-(diethylcarbamoyl-phenyl-methyl)-piperidin-1-yl]-3-fluoro-phenyl}-amide]	0.026 µM
CCNC(=O)C(c1ccccc1)C1CCN(c2ccc(NC(=O)Cc3c(C)noc3C)cc2F)CC1 (stereo not shown) [Example 13, 2-(1-{4-[2-(3,5-Dimethyl-isoxazol-4-yl)-acetylamino]-2-fluoro-phenyl}-piperidin-4-yl)-N-ethyl-2-phenyl-acetamide]	0.058 µM
CCNC(=O)C(c1ccccc1)C1CCN(c2ccc(NC(=O)C(CC)CC)cc2F)CC1 (stereo not shown) [Example 14, 2-Ethyl-N-{4-[4-(ethylcarbamoyl-phenyl-methyl)-piperidin-1-yl]-3-fluoro-phenyl}-butyramide]	0.112 µM
CCNC(=O)C(c1ccccc1)C1CCN(c2ccc(NC(=O)Nc3c(C)cccc3C)cc2F)CC1 (stereo not shown) [Example 15, 2-(1-{4-[3-(2,6-Dimethyl-phenyl)-ureido]-2-fluoro-phenyl}-piperidin-4-yl)-N-ethyl-2-phenyl-acetamide]	0.162 µM
CCCC(CCC)C(=O)Nc1ccc(N2CCC(C(C(=O)NCC)c3ccccc3)CC2)c(F)c1 (stereo not shown) [Example 16, 2-Propyl-pentanoic acid {4-[4-(ethylcarbamoyl-phenyl-methyl)-piperidin-1-yl]-3-fluoro-phenyl}-amide]	0.28 µM
CCNC(=O)C(c1ccccc1)C1CCN(c2ccc(NC(=O)NCc3ccc(F)cc3)cc2F)CC1 (stereo not shown) [Example 17, N-Ethyl-2-(1-{2-fluoro-4-[3-(4-fluoro-benzyl)-ureido]-phenyl}-piperidin-4-yl)-2-phenyl-acetamide]	1 µM
CCNC(=O)C(c1ccccc1)C1CCN(c2ccc(NC(=O)C(C)C)cc2)CC1 (stereo not shown) [Example 18, N-{4-[4-(Ethylcarbamoyl-phenyl-methyl)-piperidin-1-yl]-phenyl}-isobutyramide]	4 µM
CCNC(=O)C(c1ccccc1)C1CCN(c2ccc(NC(=O)CC3CCCCC3)cc2F)CC1 (stereo not shown) [Example 19, 2-{1-[4-(2-Cyclohexyl-acetylamino)-2-fluoro-phenyl]-piperidin-4-yl}-N-ethyl-2-phenyl-acetamide]	10 µM
CCN(CC)C(=O)C(c1ccccc1)N1CCN(c2ccc(NC(=O)Nc3c(C)noc3C)cc2F)CC1 (stereo not shown) [Example 20, 2-(4-{4-[3-(3,5-Dimethyl-isoxazol-4-yl)-ureido]-2-fluoro-phenyl}-piperazin-1-yl)-N,N-diethyl-2-phenyl-acetamide]	0.016 µM
CCN(CC)C(=O)C(c1ccccc1)N1CCN(c2ccc(NC(=O)Cc3c(C)noc3C)cc2F)CC1 (stereo not shown) [Example 21, 2-(4-{4-[2-(3,5-Dimethyl-isoxazol-4-yl)-acetylamino]-2-fluoro-phenyl}-piperazin-1-yl)-N,N-diethyl-2-phenyl-acetamide]	0.02 µM
CCN(CC)C(=O)C(c1ccccc1)N1CCN(c2ccc(NC(=O)c3c(C)noc3C)cc2F)CC1 (stereo not shown) [Example 22, 3,5-Dimethyl-isoxazole-4-carboxylic acid {4-[4-(diethylcarbamoyl-phenyl-methyl)-piperazin-1-yl]-3-fluoro-phenyl}-amide]	0.026 µM
CCNC(=O)C(c1ccccc1)N1CCN(c2ccc(NC(=O)Nc3c(C)noc3C)cc2F)CC1 (stereo not shown) [Example 23, 2-(4-{4-[3-(3,5-Dimethyl-isoxazol-4-yl)-ureido]-2-fluoro-phenyl}-piperazin-1-yl)-N-ethyl-2-phenyl-acetamide]	0.042 µM
CCNC(=O)C(c1ccccc1)N1CCN(c2ccc(NC(=O)Cc3c(C)noc3C)cc2F)CC1 (stereo not shown) [Example 24, 2-(4-{4-[2-(3,5-Dimethyl-isoxazol-4-yl)-acetylamino]-2-fluoro-phenyl}-piperazin-1-yl)-N-ethyl-2-phenyl-acetamide]	0.176 µM
CCNC(=O)C(c1ccccc1)N1CCN(c2ccc(NC(=O)Nc3cc(C)ccc3C)cc2F)CC1 (stereo not shown) [Example 25, 2-(4-{4-[3-(2,5-Dimethyl-phenyl)-ureido]-2-fluoro-phenyl}-piperazin-1-yl)-N-ethyl-2-phenyl-acetamide]	0.26 µM
CCNC(=O)C(c1ccccc1)N1CCN(c2ccc(NC(=O)NCc3ccc(F)cc3)cc2F)CC1 (stereo not shown) [Example 26, N-Ethyl-2-(4-{2-fluoro-4-[3-(4-fluoro-benzyl)-ureido]-phenyl}-piperazin-1-yl)-2-phenyl-acetamide]	2 µM

Same assay, conditions: Table 2, [125I]PYY 80 pM, average of results, read-out: IC50

Structure (SMILES)	IC50
CCC(CC)C(=O)Nc1ccc(N2CCN(C(C(=O)OC)c3ccccc3)C(C(=O)OC)C2)c(F)c1 (single isomer, unassigned; diastereomer 1) [Example 269, 4-[4-(2-Ethyl-butyrylamino)-2-fluoro-phenyl]-1-(methoxycarbonyl-phenyl-methyl)-piperazine-2-carboxylic acid methyl ester (diastereomer 1)]	2.3 µM
CCC(CC)C(=O)Nc1ccc(N2CCN(C(C(=O)OC)c3ccccc3)C(C(=O)OC)C2)c(F)c1 (single isomer, unassigned; diastereomer 2) [Example 265, 4-[4-(2-Ethyl-butyrylamino)-2-fluoro-phenyl]-1-(methoxycarbonyl-phenyl-methyl)-piperazine-2-carboxylic acid methyl ester (diastereomer 2)]	0.6 µM
CC[C@H](C)C(=O)Nc1ccc(N2CCC(C(C(=O)N(CC)CC)c3ccccc3)CC2)c(C#N)c1 (stereo in doubt) [Example 218, N-{3-Cyano-4-[4-(diethylcarbamoyl-phenyl-methyl)-piperidin-1-yl]-phenyl}-2-methyl-butyramide]	0.03 µM
